Measurements reported in patent publication US20230364243A1, “CANCER-SELECTIVE TARGET DEGRADATION BY TARGETING GROUP CAGED PROTACS” (Beth Israel Deaconess Medical Center, Inc., priority 2021, published 2023).

What was measured:
[1] = target: T1, IKZF3 (Homo sapiens, UniProt Q9UKT9); experiment: Western blotting of IKZF3 in MM.1S cells; type: cell-based; details: FOLR1-positive MM.1S cells, 12 hours
T1 construct: endogenous in cells; host or cells: MM.1S (also MM.1S-CRBN+/+ and CRBN-/-)
Experimental: (§1) For folic acid competitive degradation assay, cells were pretreated with folic acid (F8758, Sigma-Aldrich, 2.5 mM) for 2 hours, followed by the treatment of indicated PROTACs for indicated time. […] For proteasome or E3 ligase inhibition assay, cells were treated with MG132 (BML-P11020, ENZO Life Sciences, 10 μM) or MLN4924 (S7109, SelleckChem, 1 μM) another 12 hours.
(§2) Cells were lysed in EBC buffer (50 mM Tris-HCl pH 7.5, 120 mM NaCl and 0.5% NP-40) supplemented with protease inhibitors (Pierce) and phosphatase inhibitors (phosphatase inhibitor cocktailset I and II, Calbiochem). The protein concentrations of the lysates were measured using the Bio-Rad protein assay reagent on a Beckman Coulter DU-800 spectrophotometer. The lysates (40 μg protein) werethen resolved by 10% SDS-olyacrylamide gel electrophoresis (PAGE) at 130 V for 80 min and immunoblotted with indicated antibodies at 4° C. overnight, washed four times with Tris-buffered saline with 0.1% Tween-20 (TBST) buffer, incubated with secondary antibody for 1 hour at room temperature, and then washed 4 times with TBST.

[2] = target: T2, IKZF1 (Homo sapiens, UniProt Q13422+Q96SW2); experiment: Western blotting of IKZF1 in SU-DHL-1 cells; type: cell-based; details: FOLR1-positive SU-DHL-1 cells, 12 hours
T2 construct: endogenous in cells; host or cells: SU-DHL-1
Experimental: as §2

[3] = target: T3, IKZF3 (Homo sapiens, UniProt Q96SW2+Q9UKT9); experiment: Western blotting of IKZF3 in FOLR1-negative THP-1 cells; type: cell-based; parameters: endogenous in cells; details: 12 hours
Experimental: as §2

[4] = test system: MM.1S cells; experiment: Cell viability / proliferation of MM.1S cells (CCK-8); type: cell-based; details: for IC50: Homo sapiens, MM1.S
Experimental: (§3) For folic acid competitive degradation assay, cells were pretreated with folic acid (F8758, Sigma-Aldrich, 2.5 mM) for 2 hours, followed by the treatment of indicated PROTACs for indicated time. For endocytosis inhibition, cells were pretreated with Pitostop 2 (SML1169, Sigma-Aldrich, 1-30 μM) or MCD (21633, Cayman, 0.03-1 mM) for 12 hours, followed by co-treatment with indicated PROTACs for another 12 hours. For proteasome or E3 ligase inhibition assay, cells were treated with MG132 (BML-P11020, ENZO Life Sciences, 10 μM) or MLN4924 (S7109, SelleckChem, 1 μM) another 12 hours. For GSH-stimulating assay, cells were treated with S-Acetyl-GSH (29624, Cayman, 1 mM) with indicated PROTACs for 12 or 72 hours.
(§4) Cell in 96-well plates were treated with drugs as indicated, and then incubated with 10 μl/well of CCK-8 (cell counting Kit-8) solution at for 1-2 hours, followed by the measurement of optical density at 450 nm.

[5] = target: T3, IKZF3; experiment: Western blotting of IKZF3 in MM.1S cells; type: cell-based; parameters: endogenous in cells; host or cells: MM.1S (also MM.1S-CRBN+/+ and CRBN-/-); details: for effect on degrading IKZF3 after depletion of endogenous CRBN E3 ubiquitin ligase: CRBN knockout
Experimental: as §1, §2

[6] = test system: MEK1 and MEK2; experiment: Western blot analysis of MEK1 and MEK2 levels in HT29 and SK-MEL-28 cells; type: cell-based
Experimental: as §3
(§5) Cells were lysed in EBC buffer (50 mM Tris pH 7.5, 120 mM NaCl, 0.5% NP-40) supplemented with protease inhibitors (Pierce) and phosphatase inhibitors (phosphatase inhibitor cocktail set I and II, Calbiochem). The protein concentrations of the lysates were measured using the Bio-Rad protein assay reagent on a Beckman Coulter DU-800 spectrophotometer. The lysates were then resolved by SDS-PAGE and immunoblotted with indicated antibodies.
as §2

[7] = test system: SK-MEL-28 cells; experiment: Cell viability of SK-MEL-28 cells (CCK-8); type: cell-based; details: 72 hours
Experimental: as §4

[8] = test system: HT-29 cells; experiment: Cell viability of HT-29 cells (CCK-8); type: cell-based; details: 72 hours
Experimental: as §4

[9] = target: Flag-tagged cereblon (CRBN) (Homo sapiens, UniProt Q96SW2); experiment: Streptavidin pulldown competition with biotinylated pomalidomide for Flag-CRBN; type: binding; details: for competition with biotinylated-pomalidomide to bind CRBN E3 ubiquitin ligase: caged, inert form, HEK293T cell lysis, 1 hour
Experimental: Streptavadin pull down assays were performed on cell lysis derived from HEK293T (kidney) cells. Cell lysis was incubated with biotin or biotin-POMA, with or without pomalidomide, FA-S2_POMA or FA-C2-POMA for 1 hour. Additionally, some cell lysates had been pretreated with GSH.
The streptavidin pulldown assay for biotin-pomalidomide was performed as previous reported. Briefly, Flag-CRBN was expressed in HEK293T cells lysed in PROTAC buffer B (50 mM Tris-HCl pH7.5, 150 mM NaCl and 0.5% NP-40) supplemented with protease inhibitors (Pierce) and phosphatase inhibitors (phosphatase inhibitor cocktail set I and II, Calbiochem). A total of 1 mg of cell lysate was incubated with 10 μl of 10 mM biotin-pomalidomide and 8 μl of streptavidin beads for 1 hour at 4° C. in the absence or presence of pomalidomide or its derivates. Alternatively, Folate-S2-pomalidomide or Folate-C2-pomalidomide were incubated with 5 mM GSH and then subjected to the competition bindingassay. Then, the beads were washed four times with NETN buffer (20 mM Tris-HCl pH 7.5, pH 8.0, 100 mM NaCl, 1 mM EDTA and 0.5% NP-40), before being resolved by SDS-PAGE and immunoblotted with Flag-tag antibody.

[10] = test system: BRDs; experiment: Western blot analysis of BRDs in OVCAR-8 ovary cancer cells; type: cell-based; details: OVCAR-8 cells
Experimental: as §5, §2

[11] = target: T4, BRD4 (Homo sapiens, UniProt O60885); experiment: Western blot analysis of BRDs protein levels in HeLa cells; type: cell-based
T4 construct: endogenous in cells; host or cells: HeLa

[12] = Release of active compound after incubation with DTT in PBS at 37° C., HPLC analysis; type: physicochemical; details: DTT (2 equiv), 37° C. in PBS, HPLC
Experimental: FA-S2-POMA and the negative control FA-C2-POMA were incubated with dithiothreitol (DTT) under physiological conditions (37° C. in phosphate buffered saline (PBS)) and then subjected to HPLC analysis.
The effects of these folate caged PROTACS on ALK fusion protein degradation was assessed in cancer cells. FA-S2-MS4048 and FA-C2-MS4048 were incubated with DTT at 37° C. in PBS. […] Furthermore, compared to FA-S2-POMA (FIG. 11B), the release rate of FA-S2-MS4048 is slower.

[13] = test system: HFF-1 cells; experiment: Cell viability of HFF-1 normal cells (CCK-8 cell proliferation assay); type: cell-based, human; details: 72 hours
Experimental: as §4

[14] = test system: HeLa cells; experiment: Cell viability of HeLa cells (CCK-8 cell proliferation assay); type: cell-based; details: 72 hours
Experimental: as §4

Nc1cccc2c1C(=O)N(C1CCC(=O)NC1=O)C2=O (stereo not drawn) [pomalidomide, reference compound]
degradation of IKZF3 [1]: degrade IKZF3 or IKZF1 | degradation of IKZF1 [2]: degrade IKZF3 or IKZF1 | degradation of IKZF3 [3]: degrade IKZF3 or IKZF1 | IC50 ([4]; 72 hours): 58 nM | effect on degrading IKZF3 after depletion of endogenous CRBN E3 ubiquitin ligase ([5]; MM.1S cells): completely abolished the effect

Cc1ncsc1-c1ccc([C@H](C)NC(=O)[C@@H]2C[C@@H](OC(=O)CCCCn3cc(CNC(=O)CC[C@H](NC(=O)c4ccc(NCc5cnc6nc(N)[nH]c(=O)c6n5)cc4)C(=O)O)nn3)CN2C(=O)[C@@H](NC(=O)CCCCCCCCCCNCCCONC(=O)c2ccc(F)c(F)c2Nc2ccc(I)cc2F)C(C)(C)C)cc1 [Folate-MS432, N^2-(4-(((2-amino-4-oxo-3,4-dihydropteridin-6-yl)methyl)amino)benzoyl)-N^5-((1-(5-(((3R,5S)-1-((S)-2-(11-((3-((3,4-difluoro-2-((2-fluoro-4-iodophenyl)amino)benzamido)oxy)propyl)amino)undecanamido)-3,3-dimethylbutanoyl)-5-(((S)-1-(4-(4-methylthiazol-5-yl)phenyl)ethyl)carbamoyl)pyrrolidin-3-yl)oxy)-5-oxopentyl)-1H-1,2,3-triazol-4-yl)methyl)-L-glutamine]
degradation of MEK1 and MEK2 ([6]; HT29 and SK-MEL-28 cells, dose- and time-dependent): degraded MEK1 and MEK2 | effect in degrading MEK1 and MEK2 after pretreatment of folic acid ([6]; HT-29 and SK-MEL-28 cells, folic acid pretreatment): blocked the effect | degradation of MEK1/2 after pretreatment with VHL ligand Ac-VHL ([6]; HT-29 cells, Ac-VHL pretreatment): blocked the degradation of MEK1/2 | IC50 ([7]; Homo sapiens): 390 nM | IC50 ([8]; Homo sapiens): 436 nM

Nc1nc2ncc(CNc3ccc(C(=O)N[C@@H](CCC(=O)NCc4cn(CCCCCCOC(=O)N5C(=O)CCC(N6C(=O)c7cccc(N)c7C6=O)C5=O)nn4)C(=O)O)cc3)nc2c(=O)[nH]1 (stereo partly drawn) [FA-C2-POMA, N^5-((1-(6-((3-(4-amino-1,3-dioxoisoindolin-2-yl)-2,6-dioxopiperidine-1-carbonyl)oxy)hexyl)-1H-1,2,3-triazol-4-yl)methyl)-N^2-(4-(((2-amino-4-oxo-3,4-dihydropteridin-6-yl)methyl)amino)benzoyl)-L-glutamine]
degradation of IKZF3 [1]: ineffective in degrading IKZF3 | IC50 ([4]; 72 hours): 62300 nM | competition with biotinylated-pomalidomide to bind CRBN E3 ubiquitin ligase [9]: not compete

Cc1ncsc1-c1ccc([C@H](C)NC(=O)[C@@H]2C[C@@H](NC(=O)CCCCn3cc(CNC(=O)CC[C@H](NC(=O)c4ccc(NCc5cnc6nc(N)[nH]c(=O)c6n5)cc4)C(=O)O)nn3)CN2C(=O)[C@@H](NC(=O)COCCCOCCNC(=O)C[C@@H]2N=C(c3ccc(Cl)cc3)c3c(sc(C)c3C)-n3c(C)nnc32)C(C)(C)C)cc1 [Folate-ARV-771N]
degradation of BRDs [10]: but not Folate-ARV-771N, degraded BRDs | degrading BRDs ([11]; HeLa cells, even at 100 nM): incapable of degrading BRDs

Cc1ncsc1-c1ccc([C@H](C)NC(=O)[C@@H]2C[C@@H](OC(=O)CCCCn3cc(CNC(=O)CC[C@H](NC(=O)c4ccc(NCc5cnc6nc(N)[nH]c(=O)c6n5)cc4)C(=O)O)nn3)CN2C(=O)[C@@H](NC(=O)COCCCOCCNC(=O)C[C@@H]2N=C(c3ccc(Cl)cc3)c3c(sc(C)c3C)-n3c(C)nnc32)C(C)(C)C)cc1 [Folate-ARV-771]
effect in degrading BRD4 after pretreatment with endocytosis inhibitor MβCD ([11]; HeLa cells pretreated with MβCD): efficiently blocked the effect

Nc1nc2ncc(CNc3ccc(C(=O)N[C@@H](CCC(=O)NCc4cn(CCSSCCOC(=O)N5C(=O)CCC(N6C(=O)c7cccc(N)c7C6=O)C5=O)nn4)C(=O)O)cc3)nc2c(=O)[nH]1 (stereo partly drawn) [FA-S2-POMA, N^5-((1-(2-((2-((3-(4-amino-1,3-dioxoisoindolin-2-yl)-2,6-dioxopiperidine-1-carbonyl)oxy)ethyl)disulfanyl)ethyl)-1H-1,2,3-triazol-4-yl)methyl)-N^2-(4-(((2-amino-4-oxo-3,4-dihydropteridin-6-yl)methyl)amino)benzoyl)-L-glutamine]
degradation of IKZF3 [1]: degraded IKZF3 or IKZF1 | degradation of IKZF1 [2]: degraded IKZF3 or IKZF1 | IC50 ([4]; 72 hours): 1000 nM | potency in inhibiting proliferation after pretreatment with S-Ac-GSH ([4]; S-Ac-GSH 1 mM): significantly increased potency | potency for suppression of proliferation with co-treatment of folic acid ([4]; folic acid co-treatment, 72 hours): significant reduction in potency | release of pomalidomide after addition of DTT [12]: efficient release of pomalidomide | competition with biotinylated-pomalidomide to bind CRBN E3 ubiquitin ligase [9]: not compete | release of active pomalidomide upon treatment with reducing agent GSH (pulldown) ([9]; pretreated with GSH): can release pomalidomide | effect on degrading IKZF3 with co-treatment of folic acid ([5]; MM.1S cells, 2.5 mM folic acid): effectively antagonized the effect | effect on degrading IKZF3 after depletion of endogenous CRBN E3 ubiquitin ligase ([5]; MM.1S cells): completely abolished the effect | potency in degrading IKZF3 after pretreatment with S-Ac-GSH ([5]; MM.1S cells, S-Ac-GSH 1 mM): significantly increased the potentcy | effect on degradation of IKZF3 with MG132 or MLN4924 ([5]; MM.1S cells, proteasome inhibitor MG132 or neddylation inhibitor MLN4924): blocked the effect | effect on degrading IKZFs with endocytosis inhibitor pitstop 2 or MβCD ([5]; co-treatment with pitstop 2 or methyl-β-cyclodextrin (MβCD)): compromised the effect

Cc1ncsc1-c1ccc([C@H](C)NC(=O)[C@@H]2C[C@@H](O)CN2C(=O)[C@@H](NC(=O)CCCCCCCCCCNCCCONC(=O)c2ccc(F)c(F)c2Nc2ccc(I)cc2F)C(C)(C)C)cc1 [MS432, reference compound]
IC50 [7]: 32.4 nM | IC50 [8]: 176 nM

Cc1ncsc1-c1ccc([C@H](C)NC(=O)[C@@H]2C[C@@H](O)CN2C(=O)[C@@H](NC(=O)COCCCOCCNC(=O)C[C@@H]2N=C(c3ccc(Cl)cc3)c3c(sc(C)c3C)-n3c(C)nnc32)C(C)(C)C)cc1 [ARV-771]
IC50 [13]: 1100 nM | IC50 [14]: 183 nM
